Among the data in ChEMBL document CHEMBL1144662, “Requirement of beta-alanine components in sequence-specific DNA alkylation by pyrrole-imidazole conjugates with seven-base pair recognition” (Bioorg Med Chem, 2008) are Activity values, retold here.

Active and inactive are the calls of the source. No cut-off for these calls is given here.

Assay [1] in a line: Alkylation of plasmid DNA in 5'-Texas Red labeled 202-bp DNA fragment upto 5 uM after 15 hrs.
Assay [2] can be described thus: Alkylation of plasmid DNA at 5'-AGCACCA-3' site in 5'-Texas Red labeled 202-bp DNA fragment after 15 hrs.
The nature of assay [3]: Alkylation of plasmid DNA at 5'-AGCTCCA-3' site in 5'-Texas Red labeled 202-bp DNA fragment after 15 hrs.
Assay [4] in a line: Alkylation of plasmid DNA at 5'-ACAACCA-3' site in 5'-Texas Red labeled 202-bp DNA fragment after 15 hrs.
Assay [5] can be described thus: Alkylation of plasmid DNA at 5'-ACTACCA-3' site in 5'-Texas Red labeled 202-bp DNA fragment after 15 hrs.

Consider `CC(=O)Nc1cn(C)c(C(=O)Nc2cn(C)c(C(=O)Nc3cc(C(=O)Nc4cn(C)c(C(=O)Nc5cc(C(=O)NCCCC(=O)Nc6cn(C)c(C(=O)Nc7cc(C(=O)NCCC(=O)Nc8ccc9[nH]c(C(=O)N%10CC(CCl)c%11c%10cc(O)c%10ccccc%11%10)cc9c8)n(C)c7)n6)n(C)c5)n4)n(C)c3)n2)n1` (stereo unspecified), for which the result in assay [1] was inactive.

As for `CC(=O)Nc1cn(C)c(C(=O)Nc2cn(C)c(C(=O)NCCC(=O)Nc3cn(C)c(C(=O)Nc4cc(C(=O)NCCCC(=O)Nc5cn(C)c(C(=O)Nc6cc(C(=O)Nc7cc(C(=O)Nc8ccc9[nH]c(C(=O)N%10CC(CCl)c%11c%10cc(O)c%10ccccc%11%10)cc9c8)n(C)c7)n(C)c6)n5)n(C)c4)n3)n2)n1` (stereo unspecified), the result in assay [2] and in assay [3] was Active. With `CC(=O)Nc1cn(C)c(C(=O)Nc2cn(C)c(C(=O)Nc3cc(C(=O)Nc4cc(C(=O)Nc5cn(C)c(C(=O)NCCCC(=O)Nc6cc(C(=O)Nc7cc(C(=O)Nc8cc(C(=O)Nc9ccc%10[nH]c(C(=O)N%11CC(CCl)c%12c%11cc(O)c%11ccccc%12%11)cc%10c9)n(C)c8)n(C)c7)n(C)c6)n5)n(C)c4)n(C)c3)n2)n1` (stereo unspecified), the outcome in assay [4] and in assay [5] was Active. For the compound `CC(=O)Nc1cn(C)c(C(=O)Nc2cn(C)c(C(=O)Nc3cc(C(=O)NCCC(=O)Nc4cn(C)c(C(=O)NCCCC(=O)Nc5cc(C(=O)Nc6cc(C(=O)Nc7cc(C(=O)Nc8ccc9[nH]c(C(=O)N%10CC(CCl)c%11c%10cc(O)c%10ccccc%11%10)cc9c8)n(C)c7)n(C)c6)n(C)c5)n4)n(C)c3)n2)n1` (stereo unspecified), the outcome in assay [4] and in assay [5] was Active. On to `CC(=O)Nc1cn(C)c(C(=O)Nc2cn(C)c(C(=O)Nc3cc(C(=O)NCCC(=O)Nc4cn(C)c(C(=O)NCCCC(=O)Nc5cc(C(=O)NCCC(=O)Nc6cc(C(=O)Nc7ccc8[nH]c(C(=O)N9CC(CCl)c%10c9cc(O)c9ccccc%109)cc8c7)n(C)c6)n(C)c5)n4)n(C)c3)n2)n1` (stereo unspecified), for which the outcome in assay [4] and in assay [5] was Active. Take `CC(=O)Nc1cn(C)c(C(=O)Nc2cn(C)c(C(=O)NCCC(=O)Nc3cn(C)c(C(=O)Nc4cc(C(=O)NCCCC(=O)Nc5cn(C)c(C(=O)Nc6cc(C(=O)NCCC(=O)Nc7ccc8[nH]c(C(=O)N9CC(CCl)c%10c9cc(O)c9ccccc%109)cc8c7)n(C)c6)n5)n(C)c4)n3)n2)n1` (stereo unspecified): the outcome in assay [2] and in assay [3] was Active.
